Data taken from patent US20230355713A1, “PEPTIDE FOR THERAPEUTIC APPLICATIONS IN THE DERMATOLOGICAL FIELD” (Dompe' Farmaceutici S.P.A., priority 2020, published 2023).
Where no end group is shown, it is not given here.

Assays:
sensory nerve fibers = test: Histological test: density of sensory nerve fibers in skin biopsies (NF200, TRPV1 antibodies); assay type: in vivo, SCF transgenic mice of the C57BL6 line; details: 200 μg/mL in base cream, after the 8-week treatment of example 2a
Excerpt: The in vivo ability of the NGF 1-14 peptide and the NGF whole protein to increase the density of nerve endings was compared.
After the treatment described in example 2a, the animals were sacrificed and skin samples (3 biopsies per point) were taken both from the area treated with NGF1-14 or with NGF, and from the untreated area, for each animal, for the purpose of histological examination.
To evaluate the density of sensory nerve fibers, antibodies directed against the neurofilament protein 200 (NF200; Sigma) specific for large diameter fibers, and antibodies directed against the transient receptor potential vanilloid 1 (TRPV1, Neuromics) were used to measure peripheral sensory fibers (small diameter).

[1] = tested on: mouse model of human vitiligo; test: In vivo efficacy test: skin re-pigmentation, depigmentation score 0 to 5; set-up: species or system SCF transgenic mice of the C57BL6 line; details: 200 μg/mL in base cream, topical, twice a day for 8 weeks; 0 to 5 point scale
Procedure: The in vivo capacity of skin re-pigmentation by the NGF 1-14 peptide and the whole NGF protein was compared.
The study was conducted on a mouse model of human vitiligo.
SCF transgenic mice of the C57BL6 line, treated for 10-12 weeks to induce vitiligo using CD8+T cells specific for melanocytes, were shaved twice a week in the dorsal part affected by depigmentation, with an electric razor, in an area of about 6 cm×6 cm. The animals were divided into two groups of equal numbers (8 animals per group). On a first group of animals, topical administration was carried out in two sites of the shaved area spaced from both sides of the midline, applying on the left a topical preparation containing 200 μg/mL of NGF peptide in a base cream vehicle, while on the right side only the base cream (control) was applied. The same procedure was repeated on the second group of animals, applying on the left a topical preparation containing 200 μg/mL of NGF 1-14 peptide in a base cream vehicle, while on the right side only the base cream (control) was applied.
The application was spread evenly twice a day for 8 weeks, in the central part of the shaved area, on a surface of about 2 cm×2 cm. Starting from the second day and thereafter, the areas of interest were cleaned with a cloth before applying the preparations. The animals were kept away from possible sources of ultraviolet light irradiation.
Quantification of epidermal depigmentation was performed using a subjective scoring system based on a 0 to 5 point scale, where 5 represents the most severe degree of depigmentation, reported in the literature (Rebecca L. et al., Curr Protoc Immunol. (2019), 124(1)—February). A trained researcher blinded to the details of the experiment performed the evaluation at the treated site.

[2] = tested on: primary cell cultures of normal human melanocytes; test: In vitro melanin production by melanocytes (melanin content by ELISA); assay type: cell-based; details: concentration at which 50% of the maximum concentration of cellular melanin is observed; cultured for one week
Procedure: The in vitro ability of the NGF 1-14 peptide and the NGF whole protein to activate melanin production by melanocytes was compared.
According to already established protocols, primary cell cultures of normal human melanocytes were seeded in Petri dishes and cultured for one week, with and without the presence of the NGF 1-14 peptide at various concentrations, using the whole human NGF protein as a control. The melanin content was measured with the ELISA enzyme immunoassay. The maximum melanin concentration, measured as the difference from baseline, was experimentally determined from the plateau of the dose response curves of NGF and NGF 1-14. The EC50 represents the concentration of NGF 1-14 or NGF at which 50% of the maximum concentration of cellular melanin is observed.

Sprague-Dawley rats = test: In vivo tolerability test: plantar thermal hyperalgesia test (Hargreaves apparatus), paw retraction latency; details: for hyperalgesic activity compared to the saline group (paw retraction latency): 1, 3, 5 and 24 h after injection, P<0.001
Procedure: The in vivo intra-implant tolerability of the NGF 1-14 peptide was evaluated in comparison with the whole protein NGF.
Tyrode's isotonic solution containing the rh-NGF protein in concentrations from 5 to 20 μg/mL and the vehicle was administered intra-implantally in the dorsal region of Sprague-Dawley rats (10 animals for each concentration), in a volume of 0.05 mL using a very fine syringe.
Tyrode's isotonic solution containing the murine-NGF protein in concentrations from 5 to 20 μg/mL and the vehicle was administered intra-implantally in the dorsal region of Sprague-Dawley rats (10 animals for each concentration), in a volume of 0.05 mL using a very fine syringe.
Tyrode's isotonic solution containing the NGF 1-14 peptide in concentrations from 5 to 20 μg/mL and the vehicle was administered intra-implantally in the dorsal region of Sprague-Dawley rats (10 animals for each concentration), in a volume of 0.05 mL using a very fine syringe.
The solution was administered intra-implantally in the dorsal region of Sprague-Dawley rats (10 animals for each concentration), in a volume of 0.05 mL using a very fine syringe.
After the intra-implant injections, the Plantar thermal hyperalgesia test was conducted. In particular: after 1, 3, 5 and 24 h the thermal sensitivity was determined using the Hargreaves apparatus (HA).
Hypersensitivity to heat was assessed using the rat plantar test apparatus (Ugo Basile, Italy) following the method described by Hargreaves et al. (1988). The plantar test uses three perspex boxes (22×19×25 cm) placed on an elevated glass table. The rats were housed in each box, so that 3 rats could be tested simultaneously in a single apparatus and allowed to acclimate for at least 10 minutes. A mobile infrared heat source was applied to the plantar surface of the hind legs.
Paw retraction latency was defined as the time (in seconds) it took the rat to remove the hind leg from the heat source. The heat source was calibrated to an intensity of 15 IR and a cut-off of 50 sec was applied to prevent tissue damage. The test was performed at 1, 3, 5 and 24 hours after the injection. Each paw was tested twice per session (raw data represents the average of 2 measurements performed at an interval of approximately 5 minutes).

With “NGF: Nerve growth factor, whole human NGF protein used as a control” the “Nerve endings density (mm/mm^3) NF200” value (sensory nerve fibers; large diameter fibers) was 350 + 50 mm/mm^3, the “Nerve termination density unit of measurement (mm/mm^3) TRPV1” value (sensory nerve fibers; small diameter peripheral sensory fibers) was 200 + 36 mm/mm^3 and the “percentage of animals with a degree of depigmentation less than or equal to 2” value [1] was 37.5%. The “percentage of animals with a moderate degree of depigmentation equal to 3” value [1] was 37.5%, the “percentage of animals with a severe degree of depigmentation greater than or equal to 4” value [1] was 25% and the EC50 [2] was 0.06 nM.

With “SSSHPIFHRGEFSV [NGF 1-14, SSSHPIFHRGEFSV]” the “hyperalgesic activity compared to the saline group (paw retraction latency)” value (Sprague-Dawley rats; 10 μg/50 μL) was “showed hyperalgesic activity”, the “hyperalgesic activity compared to the saline group (paw retraction latency)” value (Sprague-Dawley rats; 20 μg/50 μL) was “showed hyperalgesic activity” and the EC50 [2] was 1200 nM.

“rh-NGF: rh-NGF protein, whole protein NGF comparator in the tolerability test” was tested, and the “hyperalgesic activity compared to the saline group (paw retraction latency)” value (Sprague-Dawley rats; 10 μg/50 μL) was “showed hyperalgesic activity” and the “hyperalgesic effect compared with NGF 1-14 at 10 and 20 μg/50 μL” value (Sprague-Dawley rats; 10 μg/50 μL, P<0.05 at 1-3-24 h and P<0.01 at 5 h) was “more pronounced significant hyperalgesic effect”.
